Reference: patent US10118935B2, “Melampomagnolide B dimers” (priority 2014, dated 2018)

Experiments:
[1] = test system: panel of 60 human cancer cell lines; experiment: Five-dose growth inhibition, panel; format: cell-based
M9ENL AML cell lines = settings: read-out: LC50; M9ENL AML cell lines; after 24 hours of drug exposure
CCRF-CEM = experiment: NCI 60 cell line five dose, Leukemia
SR = experiment: NCI 60 cell line five dose, Leukemia
MALME-3M = experiment: NCI 60 cell line five dose, Melanoma; settings: MALME-3M
M14 = experiment: NCI 60 cell line five dose, Melanoma
SF-295 = experiment: NCI 60 cell line five dose, CNS Cancer
U251 = experiment: NCI 60 cell line five dose, CNS Cancer
HCT-15 = experiment: NCI 60 cell line five dose, Colon Cancer
KM12 = experiment: NCI 60 cell line five dose, Colon Cancer
786-0 = experiment: NCI 60 cell line five dose, Renal Cancer
ACHN = experiment: NCI 60 cell line five dose, Renal Cancer
UO-31 = experiment: NCI 60 cell line five dose, Renal Cancer
MCF7 = experiment: NCI 60 cell line five dose, Breast Cancer
MDA-MB-468 = experiment: NCI 60 cell line five dose, Breast Cancer
OVCAR-3 = experiment: NCI 60 cell line five dose, Ovarian Cancer
OVCAR-5 = experiment: NCI 60 cell line five dose, Ovarian Cancer
NCI/ADR-RES = experiment: NCI 60 cell line five dose, Ovarian Cancer; settings: NCI/ADR-RES
SK-OV-3 = experiment: NCI 60 cell line five dose, Ovarian Cancer
PC-3 = experiment: NCI 60 cell line five dose, Prostate Cancer
A549/ATCC = experiment: NCI 60 cell line five dose, Non-Small Cell Lung Cancer
HOP-92 = experiment: as above
NCI-H460 = experiment: as above

## C=C1C(=O)O[C@H]2[C@H]1CC/C(COC(=O)NCCCCCNC(=O)OC/C1=C/CC[C@@]3(C)O[C@H]3[C@H]3OC(=O)C(=C)[C@@H]3CC1)=C\CC[C@@]1(C)O[C@@H]21 [JVM 2-76, bis(((1aR,7aS,10aS,10bS,E)-1a-Methyl-8-methylene-9-oxo-1a,2,3,6,7,7a,8,9,10a,10b-decahydrooxireno[2′,3′:9,10]cyclodeca[1,2-b]furan-5-yl)methyl)pentane-1,5-diyldicarbamate]
[1]; CCRF-CEM, HL-60 (TB), K-562, RPMI-8226, SR, NCI-H522, COLO 205, HCT-116, HT29, SW-620, LOX IMVI, OVCAR-3, RXF 393, MCF7
  growth inhibition (GI50): nano-molar range
[1]; remaining human cancer cell lines
  GI50 values: low micromolar range
NCI-H322M
  CC50: > 100 µM
M9ENL AML cell lines
  CC50: 1.35 µM
CCRF-CEM
  GI50: 0.28 µM
  TGI: 0.96 µM
CCRF-CEM; read-out: LC50
  CC50: > 100 µM
SR
  GI50: 0.38 µM
  TGI: 2.30 µM
SR; read-out: LC50
  CC50: > 100 µM
MALME-3M
  GI50: 2.06 µM
  TGI: 5.24 µM
MALME-3M; read-out: LC50
  CC50: 27.3 µM
M14
  GI50: 1.71 µM
  TGI: 3.74 µM
M14; read-out: LC50
  CC50: 8.2 µM
SF-295
  GI50: 11.1 µM
  TGI: 26.9 µM
SF-295; read-out: LC50
  CC50: 65.2 µM
U251
  GI50: 3.51 µM
  TGI: 13.7 µM
U251; read-out: LC50
  CC50: 51.5 µM
HCT-15
  GI50: 6.18 µM
  TGI: 20.7 µM
HCT-15; read-out: LC50
  CC50: 49.8 µM
KM12
  GI50: 6.53 µM
  TGI: 21.0 µM
KM12; read-out: LC50
  CC50: 54.2 µM
786-0
  GI50: 1.57 µM
  TGI: 3.17 µM
786-0; read-out: LC50
  CC50: 6.39 µM
ACHN
  GI50: 3.05 µM
  TGI: 9.84 µM
ACHN; read-out: LC50
  CC50: 35.4 µM
UO-31
  GI50: 8.9 µM
  TGI: 22.5 µM
UO-31; read-out: LC50
  CC50: 52.3 µM
MCF7
  GI50: 0.39 µM
  TGI: 1.93 µM
MCF7; read-out: LC50
  CC50: 6.2 µM
MDA-MB-468
  GI50: 1.06 µM
  TGI: 3.96 µM
MDA-MB-468; read-out: LC50
  CC50: 24.7 µM
OVCAR-3
  GI50: 0.76 µM
  TGI: 2.13 µM
OVCAR-3; read-out: LC50
  CC50: 5.07 µM
OVCAR-5
  GI50: 1.67 µM
  TGI: 3.53 µM
OVCAR-5; read-out: LC50
  CC50: 7.47 µM
NCI/ADR-RES
  GI50: 70 µM
  TGI: >100 µM
NCI/ADR-RES; read-out: LC50
  CC50: > 100 µM
SK-OV-3
  GI50: 5.99 µM
  TGI: 19.7 µM
SK-OV-3; read-out: LC50
  CC50: 49.9 µM
PC-3
  GI50: 3.79 µM
  TGI: 15.6 µM
PC-3; read-out: LC50
  CC50: 49.4 µM
A549/ATCC
  GI50: 14.9 µM
  TGI: 32.7 µM
A549/ATCC; read-out: LC50
  CC50: 71.7 µM
HOP-92
  GI50: 1.3 µM
  TGI: 3.35 µM
HOP-92; read-out: LC50
  CC50: 8.61 µM
NCI-H460
  GI50: 4.34 µM
  TGI: 16.2 µM
NCI-H460; read-out: LC50
  CC50: 50.7 µM
